pEC50: −log10 of the molar value. Read-outs that look alike come from different tables or passages of the source. Blank lines part the entries; values can stand above or below the compound they belong to.
Tested on: AML samples (live leukemic cells from bone marrow or peripheral blood of patients)
Assay: Ex-vivo effect on AML patient samples (depletion of live leukemic cells, flow cytometry, Annexin V)
Format: cell-based, human
Procedure: Patient samples were obtained from a non-interventional and prospective study. The study included samples from adult patients over 18 years of age who were diagnosed with Acute Myeloid Leukemia (AML).
In one embodiment, the method of data acquisition was performed as follows: on day 1 bone marrow (BM) or peripheral blood (PB) patient sample was received. A small part was separated from the rest of the sample for validation, while the majority of the sample was diluted with culture media and plated into 96-well plates previously prepared with the desired compounds and compound combinations, e.g., a compound or compound combination described herein. The number of live leukemic cells seeded in each well was fixed between 8000 and 32000, depending on the percentage of leukemic cells for each sample. […] Antibodies were added to identify leukemic cells using a gating strategy based on FSC/SSC and expression or lack of expression of different surface markers. The monoclonal antibodies selection was performed to optimize the identification of leukemic cell in each sample.
In one embodiment, non-limiting examples of biomarkers such as the biomarkers CD34, CD45, CD117, and HLADR known as “backbone markers” for AML (van Dongen, J. J. and A. Orfao, EuroFlow: Resetting leukemia and lymphoma immunophenotyping. Basis for companion diagnostics and personalized medicine, Leukemia, 2012, 26, 1899-907) were included in the combination.
In one embodiment, antibody combinations such as CD117/CD45, CD34/CD45, and HLADR/CD45 were used. Live leukemic cells were identified by their light scatter properties (FSC^int/hi/SSC^int) in the absence of Annexin-V-FITC staining. FSC/SSC selection was performed to exclude debris. The average percentage of cell viability upon receipt of the sample was 80% and samples were only processed if the viability was greater than 50%.
In one embodiment, sample validation was performed as follows: BM and PB samples were extracted under sterile conditions and received in the laboratory within 24 hours of extraction. Initial analysis evaluated the number of pathological cells and their viability. Different volumes of sample (1 μL, 3 μL, 5 μL and 7 μL) were aliquoted in duplicate into a 96-well plate. To lyse red blood cells, 180 μL of ammonium chloride lysis solution was added to each well (2 g KHCO3, 16.58 g NH4Cl, 0.074 g Na2EDTA2.H2O, H2O to […]). Following a 10 min incubation period at 4° C., plate was centrifuged for 5 min at 1200 rpm and the supernatant removed. The lysis step was performed twice. To analyze, 20 μL of a combination of Annexin V-FITC (Immunostep, Salamanca, Spain), binding buffer (BB, 2.4 g HEPES, 8.19 g NaCl, 0.37 g Cl2Ca, H2O to […]), and the following monoclonal antibodies (mAb) were added to each well: CD117 (clone 104D2)-PE (Becton Dickinson, San Jose, Calif., US), CD34 (clone 581)-PerCP (BioLegend, San Diego, Calif., US), HLADR (clone L243)-PB (BioLegend) and CD45 (HI30)-PO (Life Technologies, Carlsbad, Calif., US) (van Dongen, J. J., et al., EuroFlow antibody panels for standardized n-dimensional flow cytometric immunophenotyping of normal, reactive and malignant leukocytes, Leukemia, 2012, 26, 1908-75). After 15 min of incubation at room temperature in the dark, a wash step was performed using binding buffer solution. The pellet was resuspended in 30 μL BB for analysis in Vivia's ExviTech© platform. Cell count and viability upon arrival were computed and the optimal volume of sample to use per well was determined.
In one embodiment, the assay was performed according to following method: the whole sample was diluted with RPMI 1640, supplemented with 20% (v/v) FBS (Thermo Scientific, Waltham, Mass., US), 2% HEPES, 1% antibiotic (Zell Shield, Labclinics, Barcelona, Spain) and 1% L-glutamine 200 mM (Lonza, Hopkinton, Mass., US) to a final volume of 60 μL per well. […]

[1] = Homo sapiens, 72 h, plates incubated for 72 hours
[2] = Homo sapiens, 72 h, plates incubated for 72 hours, read-out: Emax
[3] = Homo sapiens, 48 h, plates incubated for 48 hours
[4] = Homo sapiens, 48 h, plates incubated for 48 hours, read-out: Emax

Structure (SMILES): CC(C)(CO)C(=O)SCCOP(=O)(NCc1ccccc1)OC[C@H]1O[C@@H](n2cnc3c(N)nc(Cl)nc32)C(F)C1O (single isomer, unassigned) [drawing 658]
- pEC50 (plates incubated for 72 hours): 5.00 to 6.00
- Emax (plates incubated for 72 hours): B (B=10-20%)

Structure (SMILES): COC(=O)COP(=O)(N[C@@H](CC(C)C)C(=O)OC)OC[C@H]1O[C@@H](n2cnc3c(N)nc(Cl)nc32)C(F)C1O (single isomer, unassigned) [drawing 659]
- pEC50 [1]: 5.00 to 6.00
- Emax [2]: > 20%

Structure (SMILES): COC(=O)COP(=O)(N[C@@H](CC(C)C)C(=O)OC)OC[C@H]1O[C@@H](n2ccc(N)nc2=O)C(O)C1O (single isomer, unassigned) [drawing 662]
- pEC50 (plates incubated for 72 hours): 5.00 to 6.00
- Emax (plates incubated for 72 hours): B (B=10-20%)

Structure (SMILES): COC(=O)COP(=O)(N[C@@H](CC(C)C)C(=O)OC)OC[C@H]1O[C@@H](n2ccc(N)nc2=O)C(O)C1O (single isomer, unassigned) [drawing 663]
- pEC50 (plates incubated for 72 hours): 4.70 to 5.00
- Emax (plates incubated for 72 hours): A (A=0-10%)

Structure (SMILES): CCOC(=O)[C@H](CC(C)C)NP(=O)(OCC(=O)OC)OC[C@H]1O[C@@H](n2ccc(N)nc2=O)C(O)C1O (single isomer, unassigned) [drawing 664]
- pEC50 [1]: 5.00 to 6.00
- Emax [2]: 0 to 10%

Structure (SMILES): CCOC(=O)[C@H](CC(C)C)NP(=O)(OCC(=O)OC)OC[C@H]1O[C@@H](n2ccc(N)nc2=O)C(O)C1O (single isomer, unassigned) [drawing 665]
- pEC50 (plates incubated for 72 hours): 5.00 to 6.00

Structure (SMILES): Cn1c(COP(=O)(NCc2ccccc2)OC[C@H]2O[C@@H](n3ccc(N)nc3=O)C(O)C2O)cnc1[N+](=O)[O-] (single isomer, unassigned) [drawing 666]
- pEC50 [1]: 5.00 to 6.00
- Emax [2]: 0 to 10%

Structure (SMILES): Cn1c(COP(=O)(NCc2ccccc2)OC[C@H]2O[C@@H](n3ccc(N)nc3=O)C(O)C2O)cnc1[N+](=O)[O-] (single isomer, unassigned) [drawing 667]
- pEC50 (plates incubated for 72 hours): 5.00 to 6.00

Now from value to compound, other results behind:

- pEC50 (plates incubated for 72 hours): 5.00 to 6.00
Structure (SMILES): COC(=O)COP(=O)(N[C@@H](CC(C)C)C(=O)OC)OC[C@H]1O[C@@H](n2cnc3c(N)nc(Cl)nc32)C(F)C1O (single isomer, unassigned) [drawing 660]
- Emax (plates incubated for 72 hours): B (B=10-20%)

- pEC50 [3]: 4.70 to 5.00
Structure (SMILES): CCOC(=O)[C@H](CC(C)C)NP1(=O)OC[C@H]2O[C@@H](n3cnc4c(N)nc(F)nc43)[C@@H](O)[C@@H]2O1 (single isomer, unassigned) [drawing 672]
- Emax (plates incubated for 48 hours): C (C>20%)

- pEC50 (plates incubated for 48 hours): ≤ 4.70
Structure (SMILES): CCOC(=O)[C@H](CC(C)C)NP1(=O)OC[C@H]2O[C@@H](n3cnc4c(N)nc(F)nc43)[C@@H](O)[C@@H]2O1 (single isomer, unassigned) [drawing 673]
- Emax (plates incubated for 48 hours): A (A=0-10%)

- pEC50 [3]: 4.70 to 5.00
Structure (SMILES): CC(C)OP1(=O)OC[C@H]2O[C@@H](N3C=NC4C(N)=NC(F)=NC43)[C@@H](O)[C@@H]2O1 (single isomer, unassigned) [drawing 675]
- Emax [4]: > 20%

- pEC50 (plates incubated for 48 hours): ≤ 4.70
Structure (SMILES): CC(C)OP1(=O)OC[C@H]2O[C@@H](N3C=NC4C(N)=NC(F)=NC43)[C@@H](O)[C@@H]2O1 (single isomer, unassigned) [drawing 676]
- Emax (plates incubated for 48 hours): C (C>20%)

- pEC50 [3]: 4.70 to 5.00
Structure (SMILES): CCOC(=O)[C@H](C)NP1(=O)OC[C@H]2O[C@@H](n3cnc4c(N)nc(F)nc43)[C@@H](O)[C@@H]2O1 (single isomer, unassigned) [drawing 680]
- Emax [4]: > 20%

- pEC50 (plates incubated for 48 hours): 4.70 to 5.00
Structure (SMILES): CCOC(=O)[C@H](C)NP1(=O)OC[C@H]2O[C@@H](n3cnc4c(N)nc(F)nc43)[C@@H](O)[C@@H]2O1 (single isomer, unassigned) [drawing 681]
